Where two headings read alike, the source gives them in different places.
How the values were obtained:
Assay in all cases: HotSpot kinase profiling
Assay type in all cases: biochemical
DCAMKL1 = molecular target: T1, DCAMKL1 (Homo sapiens, UniProt O15075)
T1 construct: purchased Reaction Biology Corp
T1 sequence (O15075 1-740): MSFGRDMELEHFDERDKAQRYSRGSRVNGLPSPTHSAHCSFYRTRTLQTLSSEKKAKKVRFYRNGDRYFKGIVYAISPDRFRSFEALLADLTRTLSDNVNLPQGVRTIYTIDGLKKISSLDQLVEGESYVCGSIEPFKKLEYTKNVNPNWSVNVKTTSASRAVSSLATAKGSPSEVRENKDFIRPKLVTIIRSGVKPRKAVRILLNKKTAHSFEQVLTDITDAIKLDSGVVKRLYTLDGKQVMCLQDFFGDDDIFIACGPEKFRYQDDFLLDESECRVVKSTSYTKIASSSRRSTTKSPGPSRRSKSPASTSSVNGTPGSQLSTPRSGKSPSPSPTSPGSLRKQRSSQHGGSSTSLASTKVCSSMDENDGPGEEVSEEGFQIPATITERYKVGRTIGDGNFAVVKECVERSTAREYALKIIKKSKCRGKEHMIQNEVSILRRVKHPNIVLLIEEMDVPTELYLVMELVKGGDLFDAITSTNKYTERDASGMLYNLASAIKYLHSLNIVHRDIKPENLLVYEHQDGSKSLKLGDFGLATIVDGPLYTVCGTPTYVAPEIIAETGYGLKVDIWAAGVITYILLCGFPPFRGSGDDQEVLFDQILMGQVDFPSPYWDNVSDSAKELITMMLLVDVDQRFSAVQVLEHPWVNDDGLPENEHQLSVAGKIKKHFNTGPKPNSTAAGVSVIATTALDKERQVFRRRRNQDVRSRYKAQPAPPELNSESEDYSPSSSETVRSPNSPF
In short: (§1)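 Radio-isotope P81 filtration format. Substrate + required cofactors in reaction buffer, kinase added, 2 h RT. Stop, wash with 0.1% phosphoric acid, detect. % inhibition vs DMSO; mean of duplicates where repeated.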

CAMKK2 = molecular target: T2, CAMKK2 (Homo sapiens, UniProt Q96RR4)
T2 construct: purchased Reaction Biology Corp
In short: as §1

ERK1 = molecular target: T3, ERK1 (Homo sapiens, UniProt P27361)
T3 construct: purchased Reaction Biology Corp
T3 sequence (P27361 whole entry): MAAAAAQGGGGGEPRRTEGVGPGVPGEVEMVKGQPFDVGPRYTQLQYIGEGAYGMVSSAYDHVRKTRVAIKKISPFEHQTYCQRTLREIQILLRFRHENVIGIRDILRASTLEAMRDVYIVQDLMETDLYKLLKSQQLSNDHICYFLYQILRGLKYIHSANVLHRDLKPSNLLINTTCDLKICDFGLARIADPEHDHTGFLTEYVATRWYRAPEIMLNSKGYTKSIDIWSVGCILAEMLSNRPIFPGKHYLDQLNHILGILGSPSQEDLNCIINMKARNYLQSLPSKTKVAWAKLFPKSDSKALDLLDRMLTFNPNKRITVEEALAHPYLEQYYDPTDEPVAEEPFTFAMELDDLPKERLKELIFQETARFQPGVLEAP
In short: as §1

RET = molecular target: T4, RET (Homo sapiens, UniProt P07949)
T4 construct: purchased Reaction Biology Corp
T4 sequence (P07949 29-1114): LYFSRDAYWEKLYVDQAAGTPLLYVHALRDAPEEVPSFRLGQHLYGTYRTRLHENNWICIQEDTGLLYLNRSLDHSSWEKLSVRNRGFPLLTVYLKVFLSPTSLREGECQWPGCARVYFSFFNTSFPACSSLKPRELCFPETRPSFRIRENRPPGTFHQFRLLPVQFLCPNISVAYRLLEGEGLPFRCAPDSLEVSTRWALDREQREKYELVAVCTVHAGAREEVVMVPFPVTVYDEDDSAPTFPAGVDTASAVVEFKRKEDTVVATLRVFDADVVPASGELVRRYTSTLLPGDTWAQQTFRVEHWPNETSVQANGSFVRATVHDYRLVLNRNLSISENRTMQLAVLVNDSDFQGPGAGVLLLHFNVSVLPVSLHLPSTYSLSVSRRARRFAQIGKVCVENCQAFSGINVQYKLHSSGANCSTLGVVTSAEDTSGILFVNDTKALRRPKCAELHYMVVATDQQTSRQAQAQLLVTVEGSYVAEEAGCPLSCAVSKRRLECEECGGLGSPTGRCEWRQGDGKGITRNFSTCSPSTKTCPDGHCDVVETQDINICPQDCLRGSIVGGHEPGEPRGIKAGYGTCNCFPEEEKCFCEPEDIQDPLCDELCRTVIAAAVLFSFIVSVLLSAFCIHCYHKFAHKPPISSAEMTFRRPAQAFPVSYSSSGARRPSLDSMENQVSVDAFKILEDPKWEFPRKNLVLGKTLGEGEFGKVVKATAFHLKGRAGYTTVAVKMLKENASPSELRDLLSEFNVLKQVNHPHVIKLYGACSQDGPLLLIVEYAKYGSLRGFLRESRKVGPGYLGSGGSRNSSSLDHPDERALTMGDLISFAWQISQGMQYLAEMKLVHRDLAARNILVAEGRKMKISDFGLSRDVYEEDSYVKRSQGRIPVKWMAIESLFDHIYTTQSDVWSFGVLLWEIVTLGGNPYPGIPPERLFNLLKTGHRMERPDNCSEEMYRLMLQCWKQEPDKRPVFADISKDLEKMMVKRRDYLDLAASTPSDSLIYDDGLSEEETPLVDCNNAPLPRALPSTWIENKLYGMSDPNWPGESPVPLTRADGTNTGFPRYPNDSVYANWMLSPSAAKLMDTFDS
In short: as §1

STK25/YSK1 = molecular target: T5, STK25/YSK1 (Homo sapiens, UniProt O00506)
T5 construct: purchased Reaction Biology Corp
T5 sequence (O00506 whole entry): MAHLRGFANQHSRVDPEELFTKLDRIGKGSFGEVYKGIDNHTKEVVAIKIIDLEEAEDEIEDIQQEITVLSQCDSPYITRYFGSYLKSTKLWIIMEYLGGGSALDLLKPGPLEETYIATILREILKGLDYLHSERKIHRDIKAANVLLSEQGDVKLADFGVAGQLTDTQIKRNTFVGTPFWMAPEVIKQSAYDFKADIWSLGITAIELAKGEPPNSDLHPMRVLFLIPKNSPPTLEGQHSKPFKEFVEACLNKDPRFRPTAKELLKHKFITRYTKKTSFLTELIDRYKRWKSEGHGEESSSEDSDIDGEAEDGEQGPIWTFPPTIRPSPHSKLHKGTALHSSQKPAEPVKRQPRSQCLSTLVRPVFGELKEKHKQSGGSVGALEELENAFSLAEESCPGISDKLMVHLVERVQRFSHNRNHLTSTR
In short: as §1

Aurora C = molecular target: T6, Aurora C (Homo sapiens, UniProt Q9UQB9)
T6 construct: purchased Reaction Biology Corp
T6 sequence (Q9UQB9 1-309): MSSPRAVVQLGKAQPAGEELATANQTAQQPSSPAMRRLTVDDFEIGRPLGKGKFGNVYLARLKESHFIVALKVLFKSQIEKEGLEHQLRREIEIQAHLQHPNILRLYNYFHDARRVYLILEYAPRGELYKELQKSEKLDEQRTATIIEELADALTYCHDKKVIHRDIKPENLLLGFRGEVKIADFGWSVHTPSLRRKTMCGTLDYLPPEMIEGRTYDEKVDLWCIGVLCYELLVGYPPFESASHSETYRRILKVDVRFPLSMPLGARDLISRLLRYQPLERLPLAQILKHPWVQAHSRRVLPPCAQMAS
In short: as §1

PASK = molecular target: T7, PASK (Homo sapiens, UniProt Q96RG2)
T7 construct: purchased Reaction Biology Corp
T7 sequence (Q96RG2 whole entry): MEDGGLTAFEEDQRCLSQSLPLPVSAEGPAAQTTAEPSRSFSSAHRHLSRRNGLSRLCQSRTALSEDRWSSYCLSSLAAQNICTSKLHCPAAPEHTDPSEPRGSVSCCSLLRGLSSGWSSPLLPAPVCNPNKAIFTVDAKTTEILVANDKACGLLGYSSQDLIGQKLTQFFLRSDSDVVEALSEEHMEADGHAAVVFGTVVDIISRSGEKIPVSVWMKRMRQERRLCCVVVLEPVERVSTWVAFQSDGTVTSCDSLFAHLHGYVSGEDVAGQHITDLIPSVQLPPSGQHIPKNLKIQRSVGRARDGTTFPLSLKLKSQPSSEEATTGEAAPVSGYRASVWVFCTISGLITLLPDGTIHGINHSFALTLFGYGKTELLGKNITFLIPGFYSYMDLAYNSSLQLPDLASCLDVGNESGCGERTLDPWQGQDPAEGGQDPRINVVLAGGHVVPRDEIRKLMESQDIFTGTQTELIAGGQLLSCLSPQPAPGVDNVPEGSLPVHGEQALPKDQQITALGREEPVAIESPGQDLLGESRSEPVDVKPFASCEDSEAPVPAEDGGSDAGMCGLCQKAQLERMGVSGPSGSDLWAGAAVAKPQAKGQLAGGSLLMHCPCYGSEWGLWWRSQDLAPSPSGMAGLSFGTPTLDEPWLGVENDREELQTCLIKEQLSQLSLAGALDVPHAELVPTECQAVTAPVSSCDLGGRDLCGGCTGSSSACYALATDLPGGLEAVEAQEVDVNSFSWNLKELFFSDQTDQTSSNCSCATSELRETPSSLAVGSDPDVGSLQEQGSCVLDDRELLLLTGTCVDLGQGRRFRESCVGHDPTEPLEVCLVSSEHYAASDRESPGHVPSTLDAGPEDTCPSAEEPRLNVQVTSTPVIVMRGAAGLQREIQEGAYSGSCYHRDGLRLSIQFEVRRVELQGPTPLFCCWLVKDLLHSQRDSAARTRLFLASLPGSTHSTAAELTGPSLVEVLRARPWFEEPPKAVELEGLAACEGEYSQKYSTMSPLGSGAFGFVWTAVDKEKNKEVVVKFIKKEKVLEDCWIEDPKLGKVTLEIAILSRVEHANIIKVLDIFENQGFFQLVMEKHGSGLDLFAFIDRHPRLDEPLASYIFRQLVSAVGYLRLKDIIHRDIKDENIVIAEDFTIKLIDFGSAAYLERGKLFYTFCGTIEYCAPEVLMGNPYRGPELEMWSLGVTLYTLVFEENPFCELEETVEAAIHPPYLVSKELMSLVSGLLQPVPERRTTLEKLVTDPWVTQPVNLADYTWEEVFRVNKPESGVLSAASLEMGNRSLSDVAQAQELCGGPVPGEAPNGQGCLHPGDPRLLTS
In short: as §1

CK1a1 = molecular target: T8, CK1a1 (Homo sapiens, UniProt P48729)
T8 construct: purchased Reaction Biology Corp
In short: as §1

FMS = molecular target: T9, FMS (Homo sapiens, UniProt P07333)
T9 construct: purchased Reaction Biology Corp
T9 sequence (P07333 20-972): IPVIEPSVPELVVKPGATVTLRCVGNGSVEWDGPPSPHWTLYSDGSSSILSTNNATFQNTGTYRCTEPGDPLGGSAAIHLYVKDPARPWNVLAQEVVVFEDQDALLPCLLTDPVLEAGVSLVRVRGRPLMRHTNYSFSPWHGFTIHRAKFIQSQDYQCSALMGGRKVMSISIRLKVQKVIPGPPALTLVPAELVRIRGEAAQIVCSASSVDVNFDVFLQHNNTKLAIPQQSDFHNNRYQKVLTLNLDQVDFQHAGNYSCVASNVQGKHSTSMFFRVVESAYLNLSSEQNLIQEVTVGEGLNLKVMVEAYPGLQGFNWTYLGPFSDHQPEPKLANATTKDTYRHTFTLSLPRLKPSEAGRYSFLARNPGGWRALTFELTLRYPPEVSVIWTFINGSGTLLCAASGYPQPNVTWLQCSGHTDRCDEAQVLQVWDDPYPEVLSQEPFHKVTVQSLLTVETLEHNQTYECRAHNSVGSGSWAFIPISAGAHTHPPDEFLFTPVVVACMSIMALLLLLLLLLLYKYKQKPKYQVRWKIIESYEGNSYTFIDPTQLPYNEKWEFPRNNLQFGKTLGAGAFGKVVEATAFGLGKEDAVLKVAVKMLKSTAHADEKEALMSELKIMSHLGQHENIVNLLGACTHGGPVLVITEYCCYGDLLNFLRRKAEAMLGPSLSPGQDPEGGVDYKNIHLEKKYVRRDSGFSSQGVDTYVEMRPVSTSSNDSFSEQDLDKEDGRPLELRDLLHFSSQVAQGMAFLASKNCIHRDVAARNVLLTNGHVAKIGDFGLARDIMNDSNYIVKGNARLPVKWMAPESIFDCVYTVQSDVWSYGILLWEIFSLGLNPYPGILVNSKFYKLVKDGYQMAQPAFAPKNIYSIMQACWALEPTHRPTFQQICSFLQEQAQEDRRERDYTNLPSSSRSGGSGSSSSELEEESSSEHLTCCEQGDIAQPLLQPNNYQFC
In short: as §1

TESK1 = molecular target: T10, TESK1 (Homo sapiens, UniProt Q15569)
T10 construct: purchased Reaction Biology Corp
T10 sequence (Q15569 whole entry): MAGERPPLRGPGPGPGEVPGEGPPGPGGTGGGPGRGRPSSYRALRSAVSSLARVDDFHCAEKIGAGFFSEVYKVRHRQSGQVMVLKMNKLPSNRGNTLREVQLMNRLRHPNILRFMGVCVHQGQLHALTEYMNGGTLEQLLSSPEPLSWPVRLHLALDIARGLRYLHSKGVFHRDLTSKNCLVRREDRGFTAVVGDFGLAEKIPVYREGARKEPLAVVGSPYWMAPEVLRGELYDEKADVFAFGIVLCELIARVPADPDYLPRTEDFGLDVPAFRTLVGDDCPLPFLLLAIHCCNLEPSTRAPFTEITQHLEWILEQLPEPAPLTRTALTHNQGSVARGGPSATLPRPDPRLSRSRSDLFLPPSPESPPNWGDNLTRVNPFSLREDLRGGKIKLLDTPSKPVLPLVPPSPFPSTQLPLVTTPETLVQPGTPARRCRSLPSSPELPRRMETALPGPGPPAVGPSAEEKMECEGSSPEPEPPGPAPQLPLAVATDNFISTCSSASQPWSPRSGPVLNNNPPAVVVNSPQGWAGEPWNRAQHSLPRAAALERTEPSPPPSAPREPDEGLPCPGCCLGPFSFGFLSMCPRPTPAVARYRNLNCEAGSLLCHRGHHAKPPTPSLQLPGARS
In short: as §1

[1] = read-out: % Enzyme Activity (relative to DMSO controls) Run 1
[2] = read-out: % Enzyme Activity (relative to DMSO controls) Run 2

## C=CC(=O)Nc1cccc(Nc2nc(Nc3ccc(OCCOC)c(F)c3)ncc2F)c1 [Compound 2]
DCAMKL1
  inhibition at 3 µM: 2.02%
DCAMKL1; [1]
  remaining activity at 3 µM: 98.4%
DCAMKL1; [2]
  remaining activity at 3 µM: 97.5%
CAMKK2
  inhibition at 3 µM: 26.8%
CAMKK2; [1]
  remaining activity at 3 µM: 74.7%
CAMKK2; [2]
  remaining activity at 3 µM: 71.8%
ERK1
  inhibition at 3 µM: 1.32%
ERK1; [1]
  remaining activity at 3 µM: 97.4%
ERK1; [2]
  remaining activity at 3 µM: 99.9%
RET
  inhibition at 3 µM: 86.6%
RET; [1]
  remaining activity at 3 µM: 13.2%
RET; [2]
  remaining activity at 3 µM: 13.6%
STK25/YSK1
  inhibition at 3 µM: 5.72%
STK25/YSK1; [1]
  remaining activity at 3 µM: 94.5%
STK25/YSK1; [2]
  remaining activity at 3 µM: 94.1%
Aurora C
  inhibition at 3 µM: 72%
Aurora C; [1]
  remaining activity at 3 µM: 26.2%
Aurora C; [2]
  remaining activity at 3 µM: 29.8%
PASK
  inhibition at 3 µM: 6.14%
PASK; [1]
  remaining activity at 3 µM: 94.7%
PASK; [2]
  remaining activity at 3 µM: 93.1%
CK1a1
  inhibition at 3 µM: -6.67%
CK1a1; [1]
  remaining activity at 3 µM: 108%
CK1a1; [2]
  remaining activity at 3 µM: 106%
FMS
  inhibition at 3 µM: 34.1%
FMS; [1]
  remaining activity at 3 µM: 64.5%
FMS; [2]
  remaining activity at 3 µM: 67.3%
TESK1
  inhibition at 3 µM: 2.13%
TESK1; [1]
  remaining activity at 3 µM: 97.2%
TESK1; [2]
  remaining activity at 3 µM: 98.5%
